Where a name gives a salt, the structure may show the parent alone.
Key:
[1] = tested on: Human large intestine cancer cell strain KM20C; assay: Anti-tumor test using nude mouse subcutaneous implantation system, peroral administration in an equitoxic dose; assay type: in vivo, BALB/cA Jcl-nu mice; conditions: peroral once a day for 14 days, 6 animals per group, FIG. 1
Procedure: Human large intestine cancer cell strain KM20C was subcutaneously subcultured in BALB/cA Jcl-nu mice (CLEA Japan, Inc.), and the resultant cancer tissues were cut into 2 mm dice fragments. Each of the fragments was subcutaneously implanted to a 6-week-old BALB/cA Jcl-nu mouse at the back thereof. On day 15 after the implantation, large and small diameters of the resultant tumor were measured, and the volume of the tumor was calculated through use of the following equation. The mice were grouped (6 animals per group) so that the average tumor volume was common to each group. Vt=½(Vl)×(Vs)^2 (Equation 5) In the equation, Vt represents tumor volume, Vl represents large diameter of tumor, and Vs represents small diameter of tumor.
CNDAC, P-CNDAC, or Compound 19 was dissolved or suspended in 0.5% hydroxypropyl methyl cellulose solution which had been buffered with 100 mM citrate buffer (pH 5.0). From the next day of grouping, the mixture was perorally administered to each mouse once a day for consecutive 14 days in an equitoxic dose.
Large and small diameters of the subcutaneously implanted tumor of each mouse were measured twice a week, and relative tumor volume (RTV) was calculated as an index indicating tumor growth through use of the following equations to evaluate anti-tumor effect of the compound. RTV=Vt1/Vt2 (Equation 6) In the equation, RTV represents ratio of tumor volume, Vt1 represents tumor volume measured on the day of determination, and Vt2 represents tumor volume measured on the day of grouping.

[2] = tested on: Human large intestine cancer cell strain KM20C; assay: Anti-tumor test using nude mouse subcutaneous implantation system with peroral administration of CNDAC compound; assay type: in vivo, BALB/cA Jcl-nu mice; conditions: peroral once a day for 14 days, dose equivalent by mole to 18 mg/kg/day of CNDAC, day 29 after grouping, KM20C subcutaneous implant
Procedure: Human large intestine cancer cell strain KM20C was subcutaneously subcultured in BALB/cA Jcl-nu mice (CLEA Japan, Inc.), and the resultant cancer tissues were cut into 2 mm dice fragments. Each of the fragments was subcutaneously implanted to a 6-week-old BALB/cA Jcl-nu mouse at the back thereof. On day 14 after the implantation, large and small diameters of the resultant tumor were measured, and the volume of the tumor was calculated by the following equation. The mice were grouped (6 animals per group) so that the groups were roughly equal in terms of average tumor volume. Vt=½(Vl)×(Vs)^2 (Equation 1) In the equation, Vt represents tumor volume, Vl represents large diameter of tumor, and Vs represents small diameter of tumor.
Each CNDAC compound was dissolved or suspended in 0.5% hydroxypropyl methyl cellulose solution which had been buffered with 100 mM citrate buffer (pH 6.0). From the next day after grouping, the mixture was perorally administered to each mouse once a day for consecutive 14 days in a dose which is equivalent, by mole, to 18 mg/kg/day of CNDAC.
On day 29 after the grouping, large and small diameters of the subcutaneously implanted tumor of each mouse were measured, and relative tumor volume (RTV) and inhibition rate (IR) were calculated by the following equations to evaluate anti-tumor effect of the compound. RTV=Vt1/Vt2 (Equation 2) In the equation, RTV represents ratio of tumor volume, Vt1 represents tumor volume measured on the day of determination, and […]. IR(%)=[1−(RTVtest)/(RTVcont)]×100 (Equation 3) In the equation, IR represents tumor growth inhibition rate, RTVtest represents mean RTV value of a drug-administered group, and RTVcont represents mean RTV value of a non-treatment group.

[3] = Mus musculus, sc, 696 h, read-out: IR (%) tumor growth inhibition rate

Structure (SMILES) | melting point | inhibition in vivo [2, 3] [%] | further results
C[Si](C)(OC[C@H]1O[C@@H](n2ccc(N)nc2=O)[C@@H](C#N)[C@@H]1O)c1ccccc1 | 139 to 140 °C | – | –
CC(C)C(C)(C)[Si](C)(C)OC[C@H]1O[C@@H](n2ccc(N)nc2=O)[C@H](C#N)[C@@H]1O | 187 to 187.5 °C | – | –
CC(C)C(C)(C)[Si](C)(C)O[C@H]1[C@H](C#N)[C@H](n2ccc(N)nc2=O)O[C@@H]1CO.CS(=O)(=O)O | 203 to 204 °C | – | –
CC(C)C[Si](CC(C)C)(CC(C)C)O[C@H]1[C@H](C#N)[C@H](n2ccc(N)nc2=O)O[C@@H]1CO | 101 to 102 °C | – | –
CC(C)C(C)(C)[Si](C)(C)O[C@H]1[C@@H](C#N)[C@H](n2ccc(N)nc2=O)O[C@@H]1CO | 179 to 182 °C | – | –
C[Si](C)(OC[C@H]1O[C@@H](n2ccc(N)nc2=O)[C@@H](C#N)[C@@H]1O)C1CCCCC1 | 152 to 153 °C | – | –
CC(C)(C)[Si](OC[C@H]1O[C@@H](n2ccc(N)nc2=O)[C@@H](C#N)[C@@H]1O)(c1ccccc1)c1ccccc1 | 187 °C | – | –
N#C[C@H]1[C@H](O)[C@@H](CO[Si](c2ccccc2)(c2ccccc2)c2ccccc2)O[C@H]1n1ccc(N)nc1=O | 203 °C (dec.) | – | –
N#C[C@H]1[C@H](O)[C@@H](CO[Si](Cc2ccccc2)(Cc2ccccc2)Cc2ccccc2)O[C@H]1n1ccc(N)nc1=O | 188 °C (dec.) | – | –
CC(C)C(C)(C)[Si](C)(C)O[C@H]1[C@H](C#N)[C@H](n2ccc(N)nc2=O)O[C@@H]1CO (as salt: hydrochloride) [Example 26, 3′-O-Dimethylthexylsilyl-2′-cyano-2′-deoxy-1-β-D-arabinofuranosylcytosine hydrochloride] | 206 °C (dec.) | – | –
CC(C)[C@H](N)C(=O)OC[C@H]1O[C@@H](n2ccc(N)nc2=O)[C@@H](C#N)[C@@H]1O[Si](C)(C)C(C)(C)C(C)C (as salt: trifluoroacetate) [Example 31, 3′-O-Dimethylthexylsilyl-5′-O-(L-valyl)-2′-cyano-2′-deoxy-1-β-D-arabinofuranosylcytosine bis(trifluoroacetate)] | 118 to 120 °C | – | –
CC(C)[C@H](N)C(=O)OC[C@H]1O[C@@H](n2ccc(N)nc2=O)[C@@H](C#N)[C@@H]1O[Si](C)(C)C(C)(C)C (as salt: trifluoroacetate) [Example 32, 5′-O-(L-Valyl)-3′-O-(tert-butyldimethylsilyl)-2′-cyano-2′-deoxy-1-β-D-arabinofuranosylcytosine bis(trifluoroacetate)] | 118 to 120 °C | – | –
N#C[C@H]1[C@H](O)[C@@H](CO)O[C@H]1n1ccc(N)nc1=O [CNDAC, 2′-cyano-2′-deoxy-1-β-D-arabinofuranosylcytosine, reference compound] | – | – | deletion of tumor [1]: no deletion of tumor; inhibition in vivo at 18 mg/kg/day [2, 3]: 46%
CC(C)(C)[Si](C)(C)OC[C@H]1O[C@@H](n2ccc(N)nc2=O)[C@@H](C#N)[C@@H]1O [Example 1, 5′-O-(tert-Butyldimethylsilyl)-2′-cyano-2′-deoxy-1-β-D-arabinofuranosylcytosine] | 185 °C (dec.) | 75 | –
CC(C)[Si](OC[C@H]1O[C@@H](n2ccc(N)nc2=O)[C@@H](C#N)[C@@H]1O)(C(C)C)C(C)C [Example 2, 5′-O-Triisopropylsilyl-2′-cyano-2′-deoxy-1-β-D-arabinofuranosylcytosine] | 177 °C (dec.) | 65 | –
CC[Si](CC)(OC[C@H]1O[C@@H](n2ccc(N)nc2=O)[C@@H](C#N)[C@@H]1O)C(C)C [Example 3, 5′-O-Diethylisopropylsilyl-2′-cyano-2′-deoxy-1-β-D-arabinofuranosylcytosine] | – | – | IR (%) tumor growth inhibition rate [2]: 82%
CC(C)C(C)(C)[Si](C)(C)OC[C@H]1O[C@@H](n2ccc(N)nc2=O)[C@@H](C#N)[C@@H]1O [Example 6, 5′-O-Dimethylthexylsilyl-2′-cyano-2′-deoxy-1-β-D-arabinofuranosylcytosine] | 188 °C (dec.) | 82 | –
CC(C)C[Si](CC(C)C)(CC(C)C)OC[C@H]1O[C@@H](n2ccc(N)nc2=O)[C@@H](C#N)[C@@H]1O [Example 7, 5′-O-Triisobutylsilyl-2′-cyano-2′-deoxy-1-β-D-arabinofuranosylcytosine] | 152 °C | 79 | –
CCCCCCCC[Si](C)(C)OC[C@H]1O[C@@H](n2ccc(N)nc2=O)[C@@H](C#N)[C@@H]1O [Example 10, 5′-O-(Dimethyl-n-octylsilyl)-2′-cyano-2′-deoxy-1-β-D-arabinofuranosylcytosine] | 142 °C | 68 | –
CC(C)(C)[Si]1(C(C)(C)C)OC[C@H]2O[C@@H](n3ccc(N)nc3=O)[C@@H](C#N)[C@@H]2O1 [Example 18, 3′,5′-O-(Di-tert-butylsilanediyl)-2′-cyano-2′-deoxy-1-β-D-arabinofuranosylcytosine] | 139 to 140 °C | 69 | –
CC[Si](CC)(O[C@H]1[C@H](C#N)[C@H](n2ccc(N)nc2=O)O[C@@H]1CO)C(C)C [Example 21, 3′-O-Diethylisopropylsilyl-2′-cyano-2′-deoxy-1-β-D-arabinofuranosylcytosine] | 161 to 163 °C | 85 | –
CCCCCCCC[Si](C)(C)O[C@H]1[C@H](C#N)[C@H](n2ccc(N)nc2=O)O[C@@H]1CO [Example 23, 3′-O-(Dimethyl-n-octylsilyl)-2′-cyano-2′-deoxy-1-β-D-arabinofuranosylcytosine] | 153 to 154 °C | – | –
CC(C)(C)[Si](C)(C)O[C@H]1[C@H](C#N)[C@H](n2ccc(N)nc2=O)O[C@@H]1CO.O=C(O)C(F)(F)F [Example 24, 3′-O-(tert-Butyldimethylsilyl)-2′-cyano-2′-deoxy-1-β-D-arabinofuranosylcytosine trifluoroacetate] | 163 to 165 °C | 83 | –
CC(C)C(C)(C)[Si](C)(C)O[C@H]1[C@H](C#N)[C@H](n2ccc(N)nc2=O)O[C@@H]1CO.O=C(O)C(F)(F)F [Example 25, 3′-O-Dimethylthexylsilyl-2′-cyano-2′-deoxy-1-β-D-arabinofuranosylcytosine trifluoroacetate] | 151 to 154 °C | – | –
CC(C)[Si](O[C@H]1[C@H](C#N)[C@H](n2ccc(N)nc2=O)O[C@@H]1CO)(C(C)C)C(C)C [Example 27, 3′-O-Triisopropylsilyl-2′-cyano-2′-deoxy-1-β-D-arabinofuranosylcytosine] | 162 to 163 °C | 85 | –
CC(C)[C@H](N)C(=O)OC[C@H]1O[C@@H](n2ccc(N)nc2=O)[C@@H](C#N)[C@@H]1O[Si](C)(C)C(C)(C)C(C)C [Example 31, 3′-O-Dimethylthexylsilyl-5′-O-(L-valyl)-2′-cyano-2′-deoxy-1-β-D-arabinofuranosylcytosine bis(trifluoroacetate)] | – | 89 | –
CC(C)[C@H](N)C(=O)OC[C@H]1O[C@@H](n2ccc(N)nc2=O)[C@@H](C#N)[C@@H]1O[Si](C)(C)C(C)(C)C [Example 32, 5′-O-(L-Valyl)-3′-O-(tert-butyldimethylsilyl)-2′-cyano-2′-deoxy-1-β-D-arabinofuranosylcytosine bis(trifluoroacetate)] | – | 85 | –
CCCCCCCCCCCCCCCC(=O)Nc1ccn([C@@H]2O[C@H](CO)[C@@H](O)[C@@H]2C#N)c(=O)n1 [P-CNDAC, 4-N-palmitoyl-2′-cyano-2′-deoxy-1-β-D-arabinofuranosylcytosine, reference compound] | – | – | deletion of tumor [1]: no deletion of tumor
